Values quoted from earlier work, collected in US20050261237A1, “Nucleoside phosphonate analogs” (priority 2003, published 2005).

Experiments:
[1] = target: PNP enzyme from Mycobacterium tuberculosis (MtPNP) (Mycobacterium tuberculosis, UniProt P9WP01); conditions: Lewandowics A. et al., Biochemistry (2003) 42, 6057
HIV = conditions: described in the literature; 61.1 with Base=G

Chain of PNP enzyme from Mycobacterium tuberculosis (MtPNP) (P9WP01 whole entry): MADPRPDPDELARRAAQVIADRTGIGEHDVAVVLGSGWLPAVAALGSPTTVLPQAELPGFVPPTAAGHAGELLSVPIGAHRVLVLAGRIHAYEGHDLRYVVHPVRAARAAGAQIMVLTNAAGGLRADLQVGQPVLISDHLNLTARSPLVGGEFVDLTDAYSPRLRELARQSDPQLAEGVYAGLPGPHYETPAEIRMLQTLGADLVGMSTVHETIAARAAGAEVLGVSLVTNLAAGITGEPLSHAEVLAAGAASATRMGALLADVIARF

Compound | inhibition of the PNP enzyme from Mycobacterium tuberculosis (MtPNP) [1] | anti-HIV activity (HIV) [µM]
Nc1nc2c(CN3C[C@H](CO)[C@@H](O)C3)c[nH]c2c(=O)[nH]1 [DADMe-ImmG] | highly potent | –
Nc1nc(=O)c2ncn([C@@H]3C[C@H](CO)[C@H]3CO)c2[nH]1 [lubocavir] | – | 30
